Data reported in ChEMBL document CHEMBL3881525, “Analogs of dehydrophenylahistins and their therapeutic use” (2007).
≈ marks a conversion by molar mass, not a printed value. Calls of active or inactive are those of the source. The calls are words filed in the database; no cut-off is given here.

Key:
[1] = tested on: Candida albicans; assay: Antifungal activity against Candida albicans ATCC 10231 measured after 48 hrs by broth dilution method; type: functional; conditions: ATCC 10231, 48 h
[2] = tested on: Aspergillus fumigatus; assay: Antifungal activity against Aspergillus fumigatus isolate 2 measured after 48 hrs by broth dilution method; type: functional; conditions: isolate 2, 48 h
[3] = tested on: Aspergillus fumigatus; assay: Antifungal activity against Aspergillus fumigatus isolate 1 measured after 48 hrs by broth dilution method; type: functional; conditions: isolate 1, 48 h
[4] = tested on: Aspergillus fumigatus; assay: Fungicidal activity against Aspergillus fumigatus isolate 2 measured after 48 hrs by broth dilution method; type: functional; conditions: isolate 2, 48 h
[5] = Cytotoxicity against human PC3 cells assessed as reduction in cell viability measured after 48 hrs by resazurin dye-based fluorometric analysis relative to control; type: functional, PC-3; set-up: concentration or dose not given beside the values
[6] = tested on: Candida albicans; assay: Antifungal activity against Candida albicans 90028 measured after 48 hrs by broth dilution method; type: functional; conditions: Candida albicans, 90028, 48 h
[7] = Antifungal activity against Candida glabrata measured after 48 hrs by broth dilution method; type: functional; conditions: Nakaseomyces glabratus
[8] = Cytotoxicity against human HT-29 cells assessed as reduction in cell viability measured after 48 hrs by resazurin dye-based fluorometric analysis; type: functional; conditions: Homo sapiens, HT-29, 48 h
[9] = Cytotoxicity against human HT-29 cells assessed as reduction in cell viability measured after 48 hrs by resazurin dye-based fluorometric analysis relative to control; type: functional
[10] = tested on: MES-SA; assay: Ratio of EC50 for taxol-resistant human MES-SA/DX5 cells expressing MDR1 mRNA and P-gp to EC50 for taxol-sensitive human MES-SA cells; type: functional
[11] = Cytotoxicity against human PC3 cells assessed as reduction in cell viability measured after 48 hrs by resazurin dye-based fluorometric analysis; type: functional; conditions: PC-3, 48 h
[12] = Antiproliferative activity against human mitoxantrone-resistant HL60/MX2 cells; type: functional, cell-based; conditions: HL-60
[13] = Antiproliferative activity against taxol-resistant human MES-SA/Dx5 cells expressing MDR1 mRNA and P-gp; type: functional, cell-based
[14] = Cytotoxicity against human NCI-H292 cells assessed as reduction in cell viability measured after 48 hrs by resazurin dye-based fluorometric analysis; type: functional; conditions: NCI-H292, 48 h
[15] = target: T1, Tubulin (Homo sapiens) (UniProt P68371+Q9H4B7+P0DPH7+P68366+Q13509+Q71U36+P04350+Q3ZCM7+P07437+P68363+Q9BQE3+Q6PEY2+Q13885+Q9BVA1+Q9BUF5); assay: Induction of microtubule depolymerization in HUVEC at 1.5 to 5 uM by turbidity spectroscopic analysis; type: cell-based
[16] = Cytotoxicity against human MDA-MB-231 cells assessed as reduction in cell viability measured after 48 hrs by resazurin dye-based fluorometric analysis; type: functional; conditions: MDA-MB-231, 48 h
[17] = target: T1, Tubulin (Homo sapiens); assay: Induction of microtubule depolymerization in HUVEC at 20 nM measured after 30 mins by DAPI-staining based immunofluorescence analysis; type: cell-based
[18] = Cytotoxicity against mouse B16F10 cells assessed as reduction in cell viability measured after 48 hrs by resazurin dye-based fluorometric analysis; type: functional; conditions: B16-F10, 48 h
[19] = tested on: HL-60; assay: Ratio of EC50 for human mitoxantrone-sensitive HL60 cells to EC50 for human mitoxantrone-resistant HL60/MX2 cells; type: functional
[20] = tested on: Jurkat; assay: Induction of apoptosis in human Jurkat cells assessed as caspase3 activation; type: functional, cell-based
[21] = Antiproliferative activity against human mitoxantrone-sensitive HL60 cells; type: functional, cell-based; conditions: HL-60
[22] = Antifungal activity against Epidermophyton floccosum isolate 1 measured after 48 hrs by broth dilution method; type: functional
[23] = Antifungal activity against Epidermophyton floccosum isolate 2 measured after 48 hrs by broth dilution method; type: functional
[24] = tested on: Trichophyton rubrum; assay: Fungicidal activity against Trichophyton rubrum isolate 2 measured after 48 hrs by broth dilution method; type: functional; conditions: isolate 2, 48 h
[25] = Antifungal activity against Trichophyton rubrum isolate 2 measured after 48 hrs by broth dilution method; type: functional
[26] = tested on: Trichophyton mentagrophytes; assay: Fungicidal activity against Trichophyton mentagrophytes isolate 1 measured after 48 hrs by broth dilution method; type: functional; conditions: isolate 1, 48 h
[27] = Antifungal activity against Trichophyton rubrum isolate 1 measured after 48 hrs by broth dilution method; type: functional
[28] = Antifungal activity against Trichophyton mentagrophytes isolate 1 measured after 48 hrs by broth dilution method; type: functional
[29] = Antifungal activity against Trichophyton mentagrophytes isolate 2 measured after 48 hrs by broth dilution method; type: functional
[30] = target: Tubulin (Candida albicans) (UniProt P87066+P10875+O93807); assay: Inhibition of microtubule formation in Candida albicans; type: protein-complex assay
[31] = target: Tubulin alpha (Homo sapiens) (UniProt P0DPH7+P68366+Q71U36+P68363+Q9BQE3+Q6PEY2+A6NHL2+Q9NY65); assay: Induction of alpha-tubulin depolymerization in HUVEC at 200 nM measured after 30 mins by DAPI staining based indirect immunofluorescence analysis; type: cell-based

Chain of Tubulin (Candida albicans) (O93807 whole entry, looked up): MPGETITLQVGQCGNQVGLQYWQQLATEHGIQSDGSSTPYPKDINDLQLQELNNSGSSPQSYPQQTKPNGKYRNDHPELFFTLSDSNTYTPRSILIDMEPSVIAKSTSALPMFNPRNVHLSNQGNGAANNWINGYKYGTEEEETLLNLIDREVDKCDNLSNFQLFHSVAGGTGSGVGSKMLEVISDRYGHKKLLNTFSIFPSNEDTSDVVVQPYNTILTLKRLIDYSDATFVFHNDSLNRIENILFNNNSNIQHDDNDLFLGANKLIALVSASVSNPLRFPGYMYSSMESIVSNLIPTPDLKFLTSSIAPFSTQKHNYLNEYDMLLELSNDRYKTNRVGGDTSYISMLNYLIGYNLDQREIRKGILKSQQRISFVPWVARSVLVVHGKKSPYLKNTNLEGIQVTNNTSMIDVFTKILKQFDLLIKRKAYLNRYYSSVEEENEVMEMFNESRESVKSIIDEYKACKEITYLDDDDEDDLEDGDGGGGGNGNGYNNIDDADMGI
Chain of Tubulin (Candida albicans) (P10875 whole entry, looked up): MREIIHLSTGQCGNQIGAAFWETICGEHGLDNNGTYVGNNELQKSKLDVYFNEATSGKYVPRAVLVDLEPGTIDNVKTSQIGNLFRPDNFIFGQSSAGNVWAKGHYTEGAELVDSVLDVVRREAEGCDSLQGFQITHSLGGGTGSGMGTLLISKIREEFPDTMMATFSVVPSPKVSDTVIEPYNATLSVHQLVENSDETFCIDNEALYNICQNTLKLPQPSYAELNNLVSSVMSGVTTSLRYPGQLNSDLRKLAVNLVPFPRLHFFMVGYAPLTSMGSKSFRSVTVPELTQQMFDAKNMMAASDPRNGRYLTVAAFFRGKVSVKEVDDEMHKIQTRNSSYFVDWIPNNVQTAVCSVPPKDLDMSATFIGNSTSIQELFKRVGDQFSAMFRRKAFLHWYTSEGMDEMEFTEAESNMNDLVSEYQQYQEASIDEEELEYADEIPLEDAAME
Chain of Tubulin (Candida albicans) (P87066 whole entry, looked up): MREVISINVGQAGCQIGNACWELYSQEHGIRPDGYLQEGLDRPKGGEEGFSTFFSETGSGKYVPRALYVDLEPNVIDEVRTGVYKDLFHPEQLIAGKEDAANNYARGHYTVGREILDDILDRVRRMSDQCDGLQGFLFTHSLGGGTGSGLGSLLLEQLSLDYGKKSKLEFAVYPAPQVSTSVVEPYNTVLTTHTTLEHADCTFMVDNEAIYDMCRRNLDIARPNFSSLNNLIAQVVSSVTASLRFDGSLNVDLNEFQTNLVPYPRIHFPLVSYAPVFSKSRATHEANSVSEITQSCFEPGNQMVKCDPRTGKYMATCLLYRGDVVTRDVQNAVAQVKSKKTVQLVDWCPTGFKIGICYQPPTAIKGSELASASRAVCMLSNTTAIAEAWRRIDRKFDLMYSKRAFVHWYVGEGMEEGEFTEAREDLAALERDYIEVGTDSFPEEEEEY

For `COc1ccc(/C=c2\[nH]c(=O)/c(=C/c3nc[nH]c3C(C)(C)C)[nH]c2=O)c(OC)c1OC`, the MIC [1] was over 32 µg/mL, the MIC [2] was 0.06 µg/mL (≈ 0.141 µM) and the MIC [3] was over 16 µg/mL. It also gave an MFC [4] of over 16 µg/mL, an Activity [5] of 94% and an MIC [6] of over 32 µg/mL. For the same molecule, the MIC [7] was over 32 µg/mL, the EC50 [8] was 4060 to 4800 nM and the “inhibition (INH)” value [9] was 78%.
With `CC(C)(C)c1ocnc1/C=c1\[nH]c(=O)/c(=C/c2ccccc2)[nH]c1=O.O=C(O)C(F)(F)F` the “Ratio EC50” value [10] was 1.4, the EC50 [11] was 20 nM and the EC50 [12] was 14 nM. The IC50 [13] was 17 nM, the EC50 [14] was 19 nM and the Activity [15] was “Active”. The EC50 [16] was 41 nM, the Activity [17] was “Active” and the EC50 [18] was over 2000 nM. The “Ratio EC50” value [19] was 0.6, the EC50 [8] was 21 to 22.2 nM and the “inhibition (INH)” value [9] was 88%.
For `CC(C)(C)c1ocnc1/C=c1\[nH]c(=O)/c(=C/c2cccc(F)c2)[nH]c1=O`, the “Ratio EC50” value [10] was 1.2, the EC50 [12] was 14 nM and the IC50 [13] was 14 nM. The EC50 [14] was 14 nM, the Activity [15] was “Active” and the EC50 [16] was 24 nM. For the same molecule, the Activity [17] was “Active”, the EC50 [18] was 13 nM and the “Ratio EC50” value [19] was 0.5. It also gave an EC50 [8] of 16.3 to 17.1 nM.
For `O=C1c2c(O)ccc(O)c2C(=O)c2c(NCCNCCO)ccc(NCCNCCO)c21` [MITOXANTRONE], the EC50 [12] was 1100 to 4870 nM, the Activity [20] was “Dose-dependent effect” and the EC50 [21] was 42 to 202 nM.
For `CC(C)(C)c1ocnc1/C=c1\[nH]c(=O)/c(=C/c2cc(F)cc(F)c2F)[nH]c1=O`, the “Ratio EC50” value [10] was 1, the EC50 [11] was 21 nM and the EC50 [12] was 19 nM. For the same molecule, the IC50 [13] was 13 nM, the EC50 [14] was 16 nM and the Activity [15] was “Active”. The EC50 [16] was 52 nM, the Activity [17] was “Active” and the EC50 [18] was over 2000 nM. For the same molecule, the “Ratio EC50” value [19] was 0.7 and the EC50 [8] was 11.4 to 17 nM.
For `COc1ccc(O)c(/C=c2\[nH]c(=O)/c(=C/c3nc[nH]c3C(C)(C)C)[nH]c2=O)c1.O=C(O)C(F)(F)F`, the EC50 [12] was 31 nM, the “Ratio EC50” value [19] was 1 and the EC50 [8] was over 2000 nM. For the same molecule, the “inhibition (INH)” value [9] was 25% and the EC50 [21] was 32 nM.
With `C=CC(C)(C)c1[nH]cnc1/C=C1\NC(=O)[C@H](Cc2ccccc2)NC1=O` the MIC [2] was over 16 µg/mL, the MIC [22] was over 16 µg/mL and the MIC [23] was over 16 µg/mL. For the same molecule, the MFC [24] was over 16 µg/mL, the MIC [3] was over 16 µg/mL and the MIC [25] was 0.16 µg/mL (≈ 0.457 µM). It also gave an MFC [26] of over 16 µg/mL, an MIC [27] of over 16 µg/mL and an MIC [28] of 16 µg/mL (≈ 45.7 µM). For the same molecule, the MIC [7] was over 70 µg/mL, the EC50 [8] was 394 to 1600 nM and the “inhibition (INH)” value [9] was 87%. It also gave an MIC [29] of over 16 µg/mL.
For `CC(C)(C)c1ocnc1/C=c1\[nH]c(=O)/c(=C/c2c(F)ccc(F)c2F)[nH]c1=O`, the “Ratio EC50” value [10] was 1.2, the IC50 [13] was 27 nM and the Activity [15] was “Active”. The Activity [17] was “Active” and the “Ratio EC50” value [19] was 1.
With `CC(C)OC(=O)Nc1cccc(Cl)c1` the inhibition [30] was “Active”.
With `CC(C)(C)c1[nH]cnc1/C=c1\[nH]c(=O)/c(=C/c2cccc(F)c2)[nH]c1=O` the Activity [31] was “Active”.
With `CC(C)(C)c1[nH]cnc1/C=c1\[nH]c(=O)/c(=C/c2cc(Cl)ccc2[N+](=O)[O-])[nH]c1=O.O=C(O)C(F)(F)F` the EC50 [12] was 19 nM, the “Ratio EC50” value [19] was 0.7 and the EC50 [8] was 99.7 to 110 nM. The “inhibition (INH)” value [9] was 86% and the EC50 [21] was 28 nM.
For `CC(C)(C)c1[nH]cnc1/C=c1\[nH]c(=O)/c(=C/c2ccc3c(c2)OCO3)[nH]c1=O`, the Activity [5] was 95%, the EC50 [8] was 82 to 87.3 nM and the “inhibition (INH)” value [9] was 84%.
With `CC(C)(C)c1ocnc1/C=c1\[nH]c(=O)/c(=C/c2c(F)c(F)cc(F)c2F)[nH]c1=O` the “Ratio EC50” value [10] was 1.1, the EC50 [11] was 17 nM and the IC50 [13] was 14 nM. The EC50 [14] was 14 nM, the Activity [15] was “Active” and the EC50 [16] was 42 nM. The Activity [17] was “Active”, the EC50 [18] was over 2000 nM and the “Ratio EC50” value [19] was 0.4. The EC50 [8] was 11 to 14.8 nM.
